Here are results for 3 molecules from PMC4076524 (The Journal of General Physiology, 2014).

As usually defined, the Hill coefficient is a measure of the steepness of the concentration-response curve. By Kd is commonly meant the equilibrium constant for the complex coming apart.

In assay [1] the target is T1, MlotiK1 CNB domain V288S/A352D mutant (Mesorhizobium japonicum, UniProt Q98GN8, A352D/V288S).
T1 sequence (Q98GN8 211-355 V288S/A352D limits assumed): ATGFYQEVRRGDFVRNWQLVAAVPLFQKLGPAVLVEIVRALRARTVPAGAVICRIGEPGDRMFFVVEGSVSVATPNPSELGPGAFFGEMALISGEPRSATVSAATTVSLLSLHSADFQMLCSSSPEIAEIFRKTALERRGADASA
Briefly: 8-NBD cAMP fluorescence competition binding assay. More on the design: species or system Mesorhizobium loti. The note with it: for coupling energy between V288S and A352D: double mutant cycle analysis of ligand binding.

The target in assay [2] is T2, MlotiK1 CNB domain T284S/V288S/A352D mutant (Mesorhizobium japonicum, UniProt Q98GN8, A352D/T284S/V288S).
T2 sequence (Q98GN8 211-355 T284S/V288S/A352D limits assumed): T1 sequence (Q98GN8 211-355 V288S/A352D limits assumed) with T74S
Nature of the assay: 8-NBD cAMP fluorescence binding/competition assay. The note with it: for coupling energy for the combination of T284S with V288S/A352D: mutant cycle analysis of ligand binding. On the set-up: species or system Mesorhizobium loti.

The target in assay [3] is T284S/V288S/A352D MlotiK1 potassium channel (Mesorhizobium japonicum, UniProt Q98GN8, A352D/T284S/V288S). Briefly: 86Rb+ uptake assay in proteoliposomes. The following applies: Hill fit. The format is biochemical, Mesorhizobium loti.
Assay [4] deals with olfactory CNG channel, threonine at C-terminal end of PBC mutated to alanine. The following applies: threonine to alanine mutant; ref Altenhofen et al., 1991; cited from earlier work.
Assay [5] addresses MlotiK1 CNB domain wild type (Mesorhizobium japonicum, UniProt Q98GN8). Briefly: 8-NBD cAMP fluorescence binding/competition assay. More on the design: species or system Mesorhizobium loti.
Assay [6] addresses MlotiK1 CNB domain V282L mutant (Mesorhizobium japonicum, UniProt Q98GN8, V282L). Nature of the assay: 8-NBD cAMP fluorescence competition binding assay. More on the design: species or system Mesorhizobium loti.
Assay [7] addresses MlotiK1 CNB domain T284N mutant (Mesorhizobium japonicum, UniProt Q98GN8, T284N). Nature of the assay: 8-NBD cAMP fluorescence competition binding assay. On the set-up: species or system Mesorhizobium loti.
Assay [8] has as its target MlotiK1 CNB domain T284Q mutant (Mesorhizobium japonicum, UniProt Q98GN8, T284Q). Nature of the assay: 8-NBD cAMP fluorescence competition binding assay. On the set-up: species or system Mesorhizobium loti.
Assay [9] concerns the target MlotiK1 CNB domain T284S mutant (Mesorhizobium japonicum, UniProt Q98GN8, T284S). Nature of the assay: 8-NBD cAMP fluorescence competition binding assay. On the set-up: species or system Mesorhizobium loti.
For assay [10], the target named is MlotiK1 CNB domain V288A mutant (Mesorhizobium japonicum, UniProt Q98GN8, V288A). Briefly: 8-NBD cAMP fluorescence competition binding assay. On the set-up: species or system Mesorhizobium loti.
Assay [11] deals with MlotiK1 CNB domain V288L mutant (Mesorhizobium japonicum, UniProt Q98GN8, V288L). Nature of the assay: 8-NBD cAMP fluorescence competition binding assay. On the set-up: species or system Mesorhizobium loti.
Assay [12] addresses MlotiK1 CNB domain V288I mutant (Mesorhizobium japonicum, UniProt Q98GN8, V288I). Briefly: 8-NBD cAMP fluorescence competition binding assay. More on the design: species or system Mesorhizobium loti.
The target of assay [13] is MlotiK1 CNB domain V288S mutant (Mesorhizobium japonicum, UniProt Q98GN8, V288S). Nature of the assay: 8-NBD cAMP fluorescence competition binding assay. More on the design: species or system Mesorhizobium loti.
The target in assay [14] is MlotiK1 CNB domain M299C mutant (Mesorhizobium japonicum, UniProt Q98GN8, M299C). Briefly: 8-NBD cAMP fluorescence competition binding assay. More on the design: species or system Mesorhizobium loti.
The target of assay [15] is MlotiK1 CNB domain M299Q mutant (Mesorhizobium japonicum, UniProt Q98GN8, M299Q). Nature of the assay: 8-NBD cAMP fluorescence competition binding assay. On the set-up: species or system Mesorhizobium loti.
Assay [16] has as its target MlotiK1 CNB domain A352S mutant (Mesorhizobium japonicum, UniProt Q98GN8, A352S). Briefly: 8-NBD cAMP fluorescence competition binding assay. More on the design: species or system Mesorhizobium loti. The following applies: competition with 50 nM 8-NBD cAMP, constant ligand, variable protein, room temperature, pH 7.5.
Assay [17] addresses MlotiK1 CNB domain A352D mutant (Mesorhizobium japonicum, UniProt Q98GN8, A352D). Briefly: 8-NBD cAMP fluorescence competition binding assay. More on the design: species or system Mesorhizobium loti.
The target in assay [18] is MlotiK1 CNB domain R348A mutant (Mesorhizobium japonicum, UniProt Q98GN8, R348A). Nature of the assay: 8-NBD cAMP fluorescence competition binding assay. On the set-up: species or system Mesorhizobium loti. The following applies: modified titration.
In assay [19] the target is MlotiK1 CNB domain R348N mutant (Mesorhizobium japonicum, UniProt Q98GN8, R348N). Briefly: 8-NBD cAMP fluorescence competition binding assay. On the set-up: species or system Mesorhizobium loti. The note with it: affinities (Kd), range stated over R348N, R348Q and R348K for cAMP and cGMP.
For assay [20], the target named is MlotiK1 CNB domain R348Q mutant (Mesorhizobium japonicum, UniProt Q98GN8, R348Q). Briefly: 8-NBD cAMP fluorescence competition binding assay. More on the design: species or system Mesorhizobium loti. The following applies: affinities (Kd), range stated over R348N, R348Q and R348K for cAMP and cGMP.
In assay [21] the target is MlotiK1 CNB domain R348K mutant (Mesorhizobium japonicum, UniProt Q98GN8, R348K). Briefly: 8-NBD cAMP fluorescence competition binding assay. More on the design: species or system Mesorhizobium loti. The note with it: affinities (Kd), range stated over R348N, R348Q and R348K for cAMP and cGMP.
Assay [22] concerns the target MlotiK1 CNB domain R348Y mutant (Mesorhizobium japonicum, UniProt Q98GN8, R348Y). Nature of the assay: 8-NBD cAMP fluorescence competition binding assay. More on the design: species or system Mesorhizobium loti. The note with it: modified titration.
For assay [23], the target named is MlotiK1 CNB domain V288S/A352S mutant (Mesorhizobium japonicum, UniProt Q98GN8, A352S/V288S). Nature of the assay: 8-NBD cAMP fluorescence competition binding assay. More on the design: species or system Mesorhizobium loti.
Assay [24] concerns bovine rod photoreceptor CNG channel. The following applies: ref Altenhofen et al., 1991; cited from earlier work.
For assay [25], the system named is bovine olfactory CNG channel. The following applies: ref Altenhofen et al., 1991; cited from earlier work.
Assay [26] concerns CNB β domain from the cGMP-dependent protein kinase I. The note with it: ref Huang et al., 2014; cited from earlier work.

Substitutions are numbered along the chain they refer to.

MlotiK1 CNB domain wild type, sequence (Q98GN8 211-355 limits assumed): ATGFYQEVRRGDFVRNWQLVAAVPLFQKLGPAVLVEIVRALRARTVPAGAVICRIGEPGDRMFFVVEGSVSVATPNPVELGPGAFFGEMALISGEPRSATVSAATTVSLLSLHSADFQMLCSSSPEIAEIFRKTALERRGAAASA
T284S/V288S/A352D MlotiK1 potassium channel, sequence (Q98GN8 whole entry T284S/V288S/A352D): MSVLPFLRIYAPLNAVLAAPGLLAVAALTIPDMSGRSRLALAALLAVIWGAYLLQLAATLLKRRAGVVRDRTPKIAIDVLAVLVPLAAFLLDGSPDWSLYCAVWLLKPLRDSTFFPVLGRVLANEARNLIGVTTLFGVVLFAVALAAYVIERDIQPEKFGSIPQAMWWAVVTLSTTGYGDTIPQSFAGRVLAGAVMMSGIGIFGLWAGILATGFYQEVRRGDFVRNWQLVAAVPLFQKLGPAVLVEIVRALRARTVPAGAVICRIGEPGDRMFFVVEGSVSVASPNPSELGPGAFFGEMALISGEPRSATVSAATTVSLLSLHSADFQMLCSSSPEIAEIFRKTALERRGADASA
MlotiK1 CNB domain V288S mutant, sequence (Q98GN8 211-355 V288S limits assumed): as the sequence (Q98GN8 211-355 limits assumed) above, with V78S counted along it
MlotiK1 CNB domain T284Q mutant, sequence (Q98GN8 211-355 T284Q limits assumed): as the sequence (Q98GN8 211-355 limits assumed) above, with T74Q counted along it
MlotiK1 CNB domain R348Q mutant, sequence (Q98GN8 211-355 R348Q limits assumed): as the sequence (Q98GN8 211-355 limits assumed) above, with R138Q counted along it
MlotiK1 CNB domain M299C mutant, sequence (Q98GN8 211-355 M299C limits assumed): as the sequence (Q98GN8 211-355 limits assumed) above, with M89C counted along it
MlotiK1 CNB domain R348Y mutant, sequence (Q98GN8 211-355 R348Y limits assumed): as the sequence (Q98GN8 211-355 limits assumed) above, with R138Y counted along it
MlotiK1 CNB domain A352D mutant, sequence (Q98GN8 211-355 A352D limits assumed): as the sequence (Q98GN8 211-355 limits assumed) above, with A142D counted along it
MlotiK1 CNB domain R348N mutant, sequence (Q98GN8 211-355 R348N limits assumed): as the sequence (Q98GN8 211-355 limits assumed) above, with R138N counted along it
MlotiK1 CNB domain V288I mutant, sequence (Q98GN8 211-355 V288I limits assumed): as the sequence (Q98GN8 211-355 limits assumed) above, with V78I counted along it
MlotiK1 CNB domain R348K mutant, sequence (Q98GN8 211-355 R348K limits assumed): as the sequence (Q98GN8 211-355 limits assumed) above, with R138K counted along it
MlotiK1 CNB domain V288S/A352S mutant, sequence (Q98GN8 211-355 V288S/A352S limits assumed): as the sequence (Q98GN8 211-355 limits assumed) above, with V78S, A142S counted along it
MlotiK1 CNB domain A352S mutant, sequence (Q98GN8 211-355 A352S limits assumed): as the sequence (Q98GN8 211-355 limits assumed) above, with A142S counted along it
MlotiK1 CNB domain M299Q mutant, sequence (Q98GN8 211-355 M299Q limits assumed): as the sequence (Q98GN8 211-355 limits assumed) above, with M89Q counted along it
MlotiK1 CNB domain R348A mutant, sequence (Q98GN8 211-355 R348A limits assumed): as the sequence (Q98GN8 211-355 limits assumed) above, with R138A counted along it
MlotiK1 CNB domain V288A mutant, sequence (Q98GN8 211-355 V288A limits assumed): as the sequence (Q98GN8 211-355 limits assumed) above, with V78A counted along it
MlotiK1 CNB domain V282L mutant, sequence (Q98GN8 211-355 V282L limits assumed): as the sequence (Q98GN8 211-355 limits assumed) above, with V72L counted along it
MlotiK1 CNB domain V288L mutant, sequence (Q98GN8 211-355 V288L limits assumed): as the sequence (Q98GN8 211-355 limits assumed) above, with V78L counted along it
MlotiK1 CNB domain T284S mutant, sequence (Q98GN8 211-355 T284S limits assumed): as the sequence (Q98GN8 211-355 limits assumed) above, with T74S counted along it
MlotiK1 CNB domain T284N mutant, sequence (Q98GN8 211-355 T284N limits assumed): as the sequence (Q98GN8 211-355 limits assumed) above, with T74N counted along it

On to `Nc1ncnc2c1ncn2[C@@H]1O[C@@H]2COP(=O)(O)O[C@H]2[C@H]1O` [cAMP], for which the “coupling energy between V288S and A352D” value in assay [1] is -0.78 ± 0.18 kcal/mol. Besides, the “coupling energy for the combination of T284S with V288S/A352D” value in assay [2] worked out at 0.14 ± 0.19 kcal/mol. This molecule came in with a Hill coefficient in assay [3] of 0.84. The “preference for cAMP” value in [4] is given as 3.3 fold.
On to `Nc1nc2c(ncn2[C@@H]2O[C@@H]3COP(=O)(O)O[C@H]3[C@H]2O)c(=O)[nH]1` [cGMP], for which the Kd came out at 1.73 µM in [5]; 8.95 µM in assay [6]; 6.56 µM in [7]; 6.95 µM in [8]; 2.98 µM in assay [9]; 2.54 µM in assay [10]. Moreover, the equilibrium dissociation constant (Kd) in assay [11] amounted to 0.996 ± 0.163 µM; in [12], 0.797 ± 0.118 µM; in assay [13], 2.1 µM; in [14] it was 2.94 µM; in assay [15], 11.6 µM; in assay [16], 0.727 ± 0.16 µM. Moreover, the Kd in assay [17] is 0.85 ± 0.121 µM; in [18], 39 ± 2.5 µM; in [19] it was 16 to 46 µM; in [20], 16 to 46 µM; in assay [21] it was 16 to 46 µM; in assay [22], 33 ± 4.8 µM. The equilibrium dissociation constant (Kd) stood at 0.749 ± 0.075 µM in assay [23], 0.351 ± 0.095 µM in assay [1] and 0.336 ± 0.126 µM in assay [2]. Moreover, the “change in ligand-binding energy by V288S alone” value in assay [13] (mutant cycle, relative to wild type) is reported as 0.12 ± 0.10 kcal/mol. In assay [1], the “coupling energy between V288S and A352D” value is -0.64 ± 0.20 kcal/mol. The “change in ligand-binding energy by V288S when combined with A352D” value in [1] (mutant cycle, relative to A352D) was -0.52 ± 0.18 kcal/mol. In [2], the “coupling energy for the combination of T284S with V288S/A352D” value was -0.34 ± 0.29 kcal/mol. Also, the Hill coefficient in assay [3] is listed as 1.3. In addition, the “sensitivity to cGMP relative to cAMP (ratio of the K1/2 for channel activation)” value in [24] and in assay [25] was roughly 40 times each time. Besides, the “selectivity for cGMP over cAMP” value in [26] is roughly 250 times.
In the case of `Nc1ncnc2c1nc(SCCNc1ccc([N+](=O)[O-])c3nonc13)n2[C@@H]1O[C@@H]2COP(=O)(O)O[C@H]2[C@H]1O` [8-NBD cAMP], the Kd in [5] came out at 0.171 ± 0.02 µM; in assay [2], 2 µM.
